Here are results for three compounds from US20140249122A1, “ANTI-DIABETIC AMINOSTEROID DERIVATIVES” (UNIVERSITE NICE SOPHIA ANTIPOLIS, priority 2011, published 2014).

Entries after “also recorded” stand apart in the source; their conditions may differ.

In one data set the test system is 3T3-L1 adipocytes. The data set can be described thus: Glucose uptake in 3T3-L1 adipocytes. Type of data set: cell-based. Particulars: various insulin concentrations, with or without ST10.
The test system of data set [1] is GLUT4. Nature of the data set: Sensitivity of adipocytes to insulin (GLUT4 on the plasma membrane). Particulars: FIG. 3B. Type of data set: cell-based. On the procedure:
The effect of insulin and of ST10 on the amount of GLUT4 on the plasma membrane was measured (FIG. 3A) and the sensitivity of the cells to insulin was calculated (FIG. 3B).

Data set [2] concerns GLUT4. The data set can be described thus: GLUT4 on the surface of insulin-resistant adipocytes. The class given is cell-based. The conditions noted are these: adipocytes made insulin resistant by insulin for 24 h, then insulin for 20 min with or without ST10.
For data set [3], the system named is GLUT4. Nature of the data set: GLUT4 at the surface of 3T3-L1 adipocytes, with or without insulin. Particulars: for effect on the effectiveness of insulin on GLUT4 translocation: 3T3-L1 adipocytes, 20 minutes, aminosteroid 50 μM, insulin 1 nM present or absent. Type of data set: cell-based. From the text:
One of the key components in the insulin-induced uptake of sugar by myocytes and adipocytes is the GLUT4 glucose (sugar) transporter. When insulin binds to its receptor at the surface of these cells, or during a muscle contraction, intracellular signalling pathways are activated, resulting in the translocation of GLUT4 from its intracellular storage compartment to the plasma membrane, where it enables sugar to enter from the extracellular medium. GLUT4 therefore plays an important role in carbohydrate homeostasis and, consequently, in T2D. 3T3-L1 adipocytes are stimulated for 20 minutes with the aminosteroids (50 μM), in the presence or absence of insulin (1 nM), and are labelled for GLUT4 at the surface of the cells. The percentage of GLUT4 at the surface of the cells is then determined.

On the set-up of data set [4]: species or system mice. The conditions noted are these: mouse, in vivo. On the procedure:
Healthy mice were treated in the same way as previously. A dose of insulin was injected into these mice (at t=0). The blood glucose level of the mice was measured until 120 minutes after the insulin injection. […] The treatment with the ST20 derivative therefore prolongs the effect of insulin.

On to `CC(C)CCC[C@@H](C)[C@H]1CC[C@H]2[C@@H]3C[C@@H](NCCCNCCCCNCCCN)[C@H]4C[C@@H](O)CC[C@]4(C)[C@H]3CC[C@]12C` [ST10, 6β-(spermine)cholestan-3β-ol], for which, in the data set with 3T3-L1 adipocytes, the “glucose uptake in adipocytes” value is listed as “increases glucose uptake in the adipocytes; also recorded: increased by ST10 for all the insulin concentrations tested”. Moreover, the “sensitivity of the cells to insulin” value with GLUT4 [1] is listed as “increases the sensitivity of the cells to insulin”. The “effect of insulin on GLUT4 on the surface of insulin-resistant cells” value in the data set on GLUT4 [2] is given as “also increases the effect of the insulin”. For the same compound, the “effect on the effectiveness of insulin on GLUT4 translocation” value in the data set with GLUT4 [3] is “increases the effectiveness of insulin on GLUT4 translocation”. In the data set on GLUT4 [3] (FIG. 1C), the “increase in GLUT4 at the surface of the plasma membrane (PM), ST10 versus trodusquemine” value was “greater in the presence of ST10 than in the presence of trodusquemine”.

For `CC(C)[C@@H](CC[C@@H](C)[C@H]1CC[C@H]2[C@@H]3[C@H](O)C[C@H]4C[C@@H](NCCCNCCCCNCCCN)CC[C@]4(C)[C@H]3CC[C@]12C)OS(=O)(=O)O` [trodusquemine, reference compound], in the data set with GLUT4 [3], the “effect on the effectiveness of insulin on GLUT4 translocation” value is reported as “not”.

For the compound `CC(C)CCC[C@@H](C)[C@H]1CCC2C3C[C@@H](NCCCCNCCCN)C4=C[C@@H](O)CC[C@]4(C)C3CC[C@@]21C` (stereo partly drawn) [ST20, 6β-(spermidine)cholesten-3β-ol], the “severe hypoglycaemia in the ITT” value in data set [4] is “did not cause severe hypoglycaemia”.
